Reference: patent publication US10125098B2, “Therapeutic compounds and methods of use thereof” (GENENTECH, INC., priority 2014, dated 2018)
Counter-ions that a name gives are not always drawn. Like-named read-outs stand apart in the source and are kept apart here.

Key:
[1] = molecular target: T1, human NaV1.7 (Homo sapiens, UniProt Q15858); assay: Patch voltage clamp electrophysiology assay (EP), NaV1.7; format: cell-based; conditions: HEK-293 cells stably expressing NaV1.7 with β1 subunit; whole-cell patch clamp, membrane potential −60 mV (inactivated state)
T1 construct: permanently transfected with an expression vector containing the full-length cDNA coding for the desired human sodium channel α-subunit; expressed in transfected cells; host or cells: HEK-293
In short: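 HEK-293 cells stably expressing human α-subunit with β1; whole-cell patch clamp (PatchXpress or manual), ambient temperature, pH 7.4 external NaCl, CsF internal. Held at −60 mV (full inactivation), stepped to −150 mV for 20 ms, then test pulse; percent current decrease after compound wash-on taken as block.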

[2] = molecular target: T2, NaV1.5 (Homo sapiens, UniProt Q14524); assay: Patch voltage clamp electrophysiology assay (EP), NaV1.5; format: cell-based
T2 construct: permanently transfected with an expression vector containing the full-length cDNA coding for the desired human sodium channel α-subunit; expressed in transfected cells; host or cells: HEK-293
Method: The following patch voltage clamp electrophysiology studies were performed on representative compounds of the invention using human embryonic kidney cells (HEK), permanently transfected with an expression vector containing the full-length cDNA coding for the desired human sodium channel α-subunit, grown in culture media containing 10% FBS, 1% PSG, and 0.5 mg/mL G418 at 37° C. with 5% CO2. […] NaV1.7 and NaV1.5 cDNAs (NM_002977 and AC137587; SCN5A, respectively) were stably expressed in HEK-293 cells. The β1 subunit was coexpressed in both the NaV1.7 and NaV1.5 cell lines.
Sodium currents were measured using the patch clamp technique in the whole-cell configuration using either a PatchXpress automated voltage clamp or manually using an Axopatch 200B (Axon Instruments) or Model 2400 (A-M systems) amplifier. The manual voltage clamp protocol was as follows: Borosilicate glass micropipettes were fire-polished to a tip diameter yielding a resistance of 2-4 Mohms in the working solutions. The pipette was filled with a solution comprised of: 5 mM NaCl, 10 mM CsCl, 120 mM CsF, 0.1 mM CaCl2, 2 mM MgCl2, 10 mM HEPES, 10 mM EGTA; and adjusted to pH 7.2 with CsOH. The external solution had the following composition: 140 mM NaCl, 5 mM KCl, 2 mM CaCl2, 1 mM MgCl2, 10 mM HEPES; and adjusted to pH 7.4 with NaOH. In some studies, the external sodium was reduced by equimolar replacement with choline. Osmolarity in the CsF internal and NaCl external solutions was adjusted to 300 mOsm/kg and 310 mOsm/kg with glucose, respectively. All recordings were performed at ambient temperature in a bath chamber with a volume of 150 μL. Control sodium currents were measured in 0.5% DMSO. Controls and representative compounds of the invention were applied to the recording chamber through a 4-pinch or 8-pinch valve bath perfusion system manufactured by ALA Scientific Instruments.
Series resistance compensation was applied (60-80%). […] All statistics in this study are given as mean±SD.
The membrane potential was maintained at a voltage where inactivation of the channel is complete (which was −60 mV for both NaV1.7 and NaV1.5). The voltage is then stepped back to a very negative (Vhold=[…]) voltage for 20 ms and then a test pulse is applied to quantify the compound block. […] The percent decrease in sodium current following wash-on of compound was taken as the percent block of sodium channels.

[3] = molecular target: T3, hNav1.7 (Homo sapiens, UniProt Q15858); assay: Tritiated compound binding (LBA) to membranes from cells expressing hNav1.7 and the β1 subunit, competitive binding; conditions: competitive binding vs 100 pM [3H]compound, 18 h, room temperature, membranes with hNav1.7 and β1 subunit
T3 construct: expressed in transfected cells
In short: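 Membranes from cells expressing hNav1.7 with β1 were incubated 18 h at room temperature with 100 pM tritiated formula (I) compound and increasing test compound, in 100 mM NaCl, 20 mM Tris HCl pH 7.4, 0.01% BSA.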

[4] = HEK-293 cells stably expressing NaV1.5 with β1 subunit, whole-cell patch clamp, membrane potential −60 mV (inactivated state), read-out: Nav1.5
[5] = human, HEK-293 cells stably expressing human NaV1.5 with β1 subunit, pH 7.4, HEK-293 cells stably expressing NaV1.5 with β1 subunit, whole-cell patch clamp, membrane potential −60 mV (inactivated state)

T2 sequence (Q14524 whole entry): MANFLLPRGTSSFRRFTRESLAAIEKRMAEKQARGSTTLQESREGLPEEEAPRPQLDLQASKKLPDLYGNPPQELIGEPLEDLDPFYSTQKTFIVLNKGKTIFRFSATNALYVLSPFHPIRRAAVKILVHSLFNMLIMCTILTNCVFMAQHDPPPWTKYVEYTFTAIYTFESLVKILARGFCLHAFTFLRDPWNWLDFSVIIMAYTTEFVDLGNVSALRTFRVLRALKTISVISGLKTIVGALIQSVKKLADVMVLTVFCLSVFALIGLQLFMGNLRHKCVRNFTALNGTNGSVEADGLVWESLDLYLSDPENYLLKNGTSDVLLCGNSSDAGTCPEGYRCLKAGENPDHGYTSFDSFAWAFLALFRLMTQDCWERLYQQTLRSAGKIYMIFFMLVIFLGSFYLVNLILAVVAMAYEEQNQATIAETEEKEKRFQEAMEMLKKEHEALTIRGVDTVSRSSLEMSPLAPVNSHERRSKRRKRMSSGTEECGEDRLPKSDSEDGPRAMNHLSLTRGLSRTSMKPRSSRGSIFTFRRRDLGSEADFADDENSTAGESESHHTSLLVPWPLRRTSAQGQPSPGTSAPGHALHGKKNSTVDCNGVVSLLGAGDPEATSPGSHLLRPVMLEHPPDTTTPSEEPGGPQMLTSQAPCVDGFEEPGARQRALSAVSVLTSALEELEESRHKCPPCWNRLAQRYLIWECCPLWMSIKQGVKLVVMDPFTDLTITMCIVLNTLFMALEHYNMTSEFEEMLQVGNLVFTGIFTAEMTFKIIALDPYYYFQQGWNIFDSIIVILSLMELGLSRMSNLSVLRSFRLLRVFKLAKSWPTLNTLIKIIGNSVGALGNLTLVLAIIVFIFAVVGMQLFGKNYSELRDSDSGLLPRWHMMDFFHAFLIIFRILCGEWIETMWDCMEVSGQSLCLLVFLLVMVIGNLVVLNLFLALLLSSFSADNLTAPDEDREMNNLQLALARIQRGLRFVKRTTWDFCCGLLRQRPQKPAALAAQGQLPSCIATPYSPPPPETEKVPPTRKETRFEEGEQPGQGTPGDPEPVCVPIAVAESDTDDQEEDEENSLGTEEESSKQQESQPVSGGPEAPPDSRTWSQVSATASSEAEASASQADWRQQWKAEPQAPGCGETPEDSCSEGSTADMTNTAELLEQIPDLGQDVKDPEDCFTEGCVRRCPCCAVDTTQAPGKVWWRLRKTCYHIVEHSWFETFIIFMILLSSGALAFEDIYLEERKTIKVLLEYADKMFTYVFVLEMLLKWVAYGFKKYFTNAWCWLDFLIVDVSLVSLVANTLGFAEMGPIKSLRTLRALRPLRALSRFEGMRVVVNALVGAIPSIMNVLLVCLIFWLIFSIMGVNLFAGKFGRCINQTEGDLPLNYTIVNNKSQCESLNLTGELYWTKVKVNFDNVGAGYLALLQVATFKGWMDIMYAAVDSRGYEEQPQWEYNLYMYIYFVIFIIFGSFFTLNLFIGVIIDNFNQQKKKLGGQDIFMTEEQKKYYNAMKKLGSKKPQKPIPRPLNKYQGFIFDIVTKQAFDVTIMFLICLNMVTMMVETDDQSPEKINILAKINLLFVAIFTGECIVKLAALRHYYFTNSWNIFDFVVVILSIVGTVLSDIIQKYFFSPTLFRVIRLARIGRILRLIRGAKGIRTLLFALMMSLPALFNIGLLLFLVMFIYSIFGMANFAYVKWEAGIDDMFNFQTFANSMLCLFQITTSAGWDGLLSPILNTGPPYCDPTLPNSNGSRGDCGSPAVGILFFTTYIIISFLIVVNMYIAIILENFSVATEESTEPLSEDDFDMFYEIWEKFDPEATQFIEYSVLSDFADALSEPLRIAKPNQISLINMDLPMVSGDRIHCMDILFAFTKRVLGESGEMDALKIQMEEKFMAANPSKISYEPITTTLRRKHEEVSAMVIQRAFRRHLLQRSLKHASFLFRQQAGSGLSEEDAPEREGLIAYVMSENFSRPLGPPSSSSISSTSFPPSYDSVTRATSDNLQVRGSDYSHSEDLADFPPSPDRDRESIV
T3 sequence (Q15858 1-1977 isoform Q15858-3): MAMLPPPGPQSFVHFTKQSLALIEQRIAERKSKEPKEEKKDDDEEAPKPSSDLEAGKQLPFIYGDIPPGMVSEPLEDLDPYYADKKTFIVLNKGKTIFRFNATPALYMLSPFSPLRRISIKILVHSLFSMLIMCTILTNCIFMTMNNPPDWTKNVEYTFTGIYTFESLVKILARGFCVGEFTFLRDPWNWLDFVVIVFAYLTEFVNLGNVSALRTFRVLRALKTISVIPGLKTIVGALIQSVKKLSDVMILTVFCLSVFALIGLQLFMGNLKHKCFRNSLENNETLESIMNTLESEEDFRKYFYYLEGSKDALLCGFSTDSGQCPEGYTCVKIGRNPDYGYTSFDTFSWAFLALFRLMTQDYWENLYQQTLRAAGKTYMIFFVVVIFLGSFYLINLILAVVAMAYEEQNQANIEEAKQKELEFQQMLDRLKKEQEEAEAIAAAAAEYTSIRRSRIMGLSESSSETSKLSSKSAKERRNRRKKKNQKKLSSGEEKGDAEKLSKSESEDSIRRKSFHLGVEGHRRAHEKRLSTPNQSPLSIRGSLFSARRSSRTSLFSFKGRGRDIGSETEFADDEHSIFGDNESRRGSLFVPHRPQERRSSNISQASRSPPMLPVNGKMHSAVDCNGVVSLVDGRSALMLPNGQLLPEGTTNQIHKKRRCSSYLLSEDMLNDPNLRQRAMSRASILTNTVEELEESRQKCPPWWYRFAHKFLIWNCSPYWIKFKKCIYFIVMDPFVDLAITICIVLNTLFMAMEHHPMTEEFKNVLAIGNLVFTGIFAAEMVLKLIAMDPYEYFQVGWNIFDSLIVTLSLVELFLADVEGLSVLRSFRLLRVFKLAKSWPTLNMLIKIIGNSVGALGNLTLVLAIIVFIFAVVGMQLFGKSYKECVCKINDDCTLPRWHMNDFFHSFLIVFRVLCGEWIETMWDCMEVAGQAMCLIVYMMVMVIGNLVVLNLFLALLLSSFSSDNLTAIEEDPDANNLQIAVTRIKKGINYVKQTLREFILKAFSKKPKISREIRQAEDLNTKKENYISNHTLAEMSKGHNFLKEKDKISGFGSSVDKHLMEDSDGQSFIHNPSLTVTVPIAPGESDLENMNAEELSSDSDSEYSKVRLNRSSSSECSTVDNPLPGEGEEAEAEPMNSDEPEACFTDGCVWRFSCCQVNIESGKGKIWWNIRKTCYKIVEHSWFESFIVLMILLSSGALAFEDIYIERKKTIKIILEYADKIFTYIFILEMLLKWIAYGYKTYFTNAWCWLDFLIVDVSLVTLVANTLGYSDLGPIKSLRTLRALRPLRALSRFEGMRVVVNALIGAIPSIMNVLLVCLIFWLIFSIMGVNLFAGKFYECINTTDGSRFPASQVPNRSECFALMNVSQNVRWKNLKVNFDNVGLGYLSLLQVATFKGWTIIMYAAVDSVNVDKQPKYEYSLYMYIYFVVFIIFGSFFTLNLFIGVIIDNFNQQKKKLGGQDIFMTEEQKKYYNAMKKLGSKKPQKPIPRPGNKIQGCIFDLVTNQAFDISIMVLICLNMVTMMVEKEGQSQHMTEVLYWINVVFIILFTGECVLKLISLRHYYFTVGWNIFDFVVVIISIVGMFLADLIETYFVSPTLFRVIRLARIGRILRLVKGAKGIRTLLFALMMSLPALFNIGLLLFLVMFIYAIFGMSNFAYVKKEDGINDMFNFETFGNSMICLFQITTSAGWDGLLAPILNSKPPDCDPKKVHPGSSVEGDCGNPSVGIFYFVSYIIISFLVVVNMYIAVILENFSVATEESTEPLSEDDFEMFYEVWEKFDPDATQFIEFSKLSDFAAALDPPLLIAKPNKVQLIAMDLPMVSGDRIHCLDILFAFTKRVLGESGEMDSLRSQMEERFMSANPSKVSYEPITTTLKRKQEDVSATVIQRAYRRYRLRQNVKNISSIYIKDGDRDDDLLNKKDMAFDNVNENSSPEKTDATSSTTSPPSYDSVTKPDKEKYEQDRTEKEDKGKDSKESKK
T3 sequence (Q07699 19-218 partner): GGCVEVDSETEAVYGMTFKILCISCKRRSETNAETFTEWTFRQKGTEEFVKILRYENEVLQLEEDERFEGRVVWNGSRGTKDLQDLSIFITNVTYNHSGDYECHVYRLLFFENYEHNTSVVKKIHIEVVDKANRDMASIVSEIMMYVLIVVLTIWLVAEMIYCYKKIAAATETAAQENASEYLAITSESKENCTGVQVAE
T1 sequence (Q15858 1-1977 isoform Q15858-3): as the sequence (Q15858 1-1977 isoform Q15858-3) above
T1 sequence (Q07699 19-218 partner): as the sequence (Q07699 19-218 partner) above

Structure (SMILES)	IC50 [1] [nM]	IC50 [3] [nM]	IC50 [2, 4] [nM]	IC50 [2, 5] [nM]	IC50 [2] [nM]
O=C(N[C@H](C(=O)O)C1CC1)c1cc(C2CC2)c(OCC23CC4CC(CC(C4)C2)C3)cc1F [Example 74, (S)-2-(4-(adamantan-1-ylmethoxy)-5-cyclopropyl-2-fluorobenzamido)-2-cyclopropylacetic acid]	700	24	7500	–	–
O=C(NO)[C@@H]1C[C@@H](F)CN1C(=O)c1cc(C2CC2)c(OCC23CC4CC(CC(C4)C2)C3)cc1F [Example 199, 1-(4-(adamantan-1-ylmethoxy)-5-cyclopropyl-2-fluorobenzoyl)-4-fluoro-N-hydroxypyrrolidine-2-carboxamide]	3600	470	15000	–	–
CO[C@@H]1C[C@@H](C(=O)O)N(C(=O)c2cc(C3CC3)c(OCC34CC5CC(CC(C5)C3)C4)cc2F)C1 [Example 59, (2S,4R)-1-(4-((adamantan-1-yl)methoxy)-5-cyclopropyl-2-fluorobenzoyl)-4-methoxypyrrolidine-2-carboxylic acid]	550	34	26000	–	–
C[C@H]1[C@H](O)CN(C(=O)c2cc(C3CC3)c(OCC34CC5CC(CC(C5)C3)C4)cc2F)[C@@H]1C(=O)O [Example 230, (2S, 3R, 4S)-1-(4-(adamantan-1-ylmethoxy)-5-cyclopropyl-2-fluorobenzoyl)-4-hydroxy-3-methylpyrrolidine-2-carboxylic acid]	32	21	11000	–	–
CC(C)[C@H](NC(=O)c1cc(C2CC2)c(COc2cc(Cl)cc(OC(F)(F)F)c2)cc1F)C(=O)O [Example 183, (S)-2-(4-((3-chloro-5-(trifluoromethoxy)phenoxy)methyl)-5-cyclopropyl-2-fluorobenzamido)-3-methylbutanoic acid]	1900	31	9200	–	–
COc1ncccc1-c1cc(C(=O)N2CCC[C@H]2C(=O)O)c(F)cc1Oc1cnc(OC(C)C)c(Cl)c1 [Example 179, (S)-1-(4-((5-chloro-6-isopropoxypyridin-3-yl)oxy)-2-fluoro-5-(2-methoxypyridin-3-yl)benzoyl)pyrrolidine-2-carboxylic acid]	830	400	–	≥ 30000	–
O=C(O)[C@@H]1CC2(CC2)CN1C(=O)c1cc(C2CC2)c(OCC23CC4CC(CC(C4)C2)C3)cc1F [Example 200, (S)-5-(4-(adamantan-1-ylmethoxy)-5-cyclopropyl-2-fluorobenzoyl)-5-azaspiro[2.4]heptane-6-carboxylic acid]	790	84	–	–	12000
O=C(O)[C@@H]1CC(F)(F)CN1C(=O)c1cc(C2CC2)c(OCC23CC4CC(CC(C4)C2)C3)cc1F [Example 160, (2S)-1-[4-(1-adamantylmethoxy)-5-cyclopropyl-2-fluoro-benzoyl]-4,4-difluoro-pyrrolidine-2-carboxylic acid]	640	35	16000	–	–
O=C(O)C[C@H](NC(=O)c1cc(C2CC2)c(OCC23CC4CC(CC(C4)C2)C3)cc1F)C(=O)O [Example 84, (S)-2-(4-(adamantan-1-ylmethoxy)-5-cyclopropyl-2-fluorobenzamido)succinic acid]	17000	≥ 10000	–	≥ 30000	–

Continued, in another order:

IC50 [1] [nM]	IC50 [3] [nM]	Structure (SMILES)	IC50 [2, 4] [nM]	IC50 [2, 5] [nM]	IC50 [2] [nM]
4200	1000	CC(c1cc(Cl)cc(Cl)c1)N1CCC(COc2cc(F)c(C(=O)N3[C@@H](C(=O)O)C[C@H]4CCC[C@H]43)cc2C2CC2)CC1 (stereo partly drawn) [Example 172, (2R,3R,6R)-1-(5-cyclopropyl-4-((1-((R)-1-(3,5-dichlorophenyl)ethyl)piperidin-4-yl)methoxy)-2-fluorobenzoyl)octahydrocyclopenta[b]pyrrole-2-carboxylic acid]	14000	–	–
410	31	O=C(O)[C@@H]1CCCN1C(=O)c1cc(C2CC2)c(OCC2CCN([C@@H](c3cc(Cl)cc(Cl)c3)C(F)(F)F)CC2)cc1F (single isomer, unassigned) [Example 123b]	7700	–	–
630	83	CC1(COc2cc(F)c(C(=O)N3CCC[C@H]3C(=O)O)cc2C2CC2)CCC2(CC1)CC2 [Example 58, (5-cyclopropyl-2-fluoro-4-((6-methylspiro[2.5]octan-6-yl)-methoxy)benzoyl)-L-proline]	21000	–	–
520	66	O=C(O)[C@@H]1C[C@@H](F)CN1C(=O)c1cc(C2CC2)c(OCC2CCN(Cc3cc(C(F)(F)F)cc(Cl)c3F)CC2)cc1F [Example 101, (2S,4R)-1-(4-((1-(3-chloro-2-fluoro-5-(trifluoromethyl)benzyl)-piperidin-4-yl)methoxy)-5-cyclopropyl-2-fluorobenzoyl)-4-fluoropyrrolidine-2-carboxylic acid]	–	≥ 30000	–
300	6.9	C[C@H]1OCN(C(=O)c2cc(C3CC3)c(OCC3CCN([C@H](c4cc(Cl)cc(Cl)c4)C(F)(F)F)CC3)cc2F)[C@@H]1C(=O)O (single isomer, unassigned) [Example 138a]	13000	–	–
660	81	O=C(O)[C@@H]1C[C@@H](F)CN1C(=O)c1cc(C2CC2)c(OCC2CCN(Cc3cc(C(F)(F)F)cc(C4CC4)n3)CC2)cc1F [Example 93, (2S, 4R)-1-(5-cyclopropyl-4-((1-((6-cyclopropyl-4-(trifluoromethyl)-pyridin-2-yl)methyl)piperidin-4-yl)methoxy)-2-fluorobenzoyl)-4-fluoropyrrolidine-2-carboxylic acid]	–	≥ 30000	–
320	7.6	C[C@H]1OCN(C(=O)c2cc(C3CC3)c(OCC3CCN([C@@H](c4cc(Cl)cc(Cl)c4)C(F)(F)F)CC3)cc2F)[C@@H]1C(=O)O (single isomer, unassigned) [Example 138b]	11000	–	–
580	12	C[C@H]1CCN(C(=O)c2cc(C3CC3)c(OCC3(C)CN([C@@H](c4ccccc4)c4cc(Cl)cc(Cl)c4)C3)cc2F)[C@@H]1C(=O)O (single isomer, unassigned) [Example 116]	15000	–	–
160	27	COC[C@H](c1cc(Cl)cc(Cl)c1)N1CCC(COc2cc(F)c(C(=O)N3C[C@H](F)C[C@H]3C(=O)O)cc2C2CC2)CC1 [Example 130, (2S,4R)-1-(5-cyclopropyl-4-((1-((S)-1-(3,5-dichlorophenyl)-2-methoxyethyl)piperidin-4-yl)methoxy)-2-fluorobenzoyl)-4-fluoropyrrolidine-2-carboxylic acid]	14000	–	–
990	20	O=C(O)[C@@H]1CCCN1C(=O)c1cc(C2CC2)c(OCC2CCN(C(c3ccccc3)c3cc(Cl)cc(Cl)c3)CC2)cc1F (stereo partly drawn) [Example 193, (2S)-1-(5-Cyclopropyl-4-((1-((3,5-dichlorophenyl)(phenyl)methyl)piperidin-4-yl)methoxy)-2-fluorobenzoyl)pyrrolidine-2-carboxylic acid trifluoroacetate]	7600	–	–
1500	93	C[C@@H](c1cc(Cl)cc(Cl)c1)N1CCC[C@H](COc2cc(F)c(C(=O)N3CCC[C@H]3C(=O)O)cc2C2CC2)C1 (single isomer, unassigned) [Example 73b]	22000	–	–
